{
  "source": "paper PMC7554977",
  "about": "“Antimicrobial Peptides with Enhanced Salt Resistance and Antiendotoxin Properties” (International Journal of Molecular Sciences, 2020)",
  "key": {"[1]": {"tested_on": "Gram-negative and Gram-positive bacteria", "settings": "cited from earlier work", "text": "Problems such as salt sensitivity, cost of synthesis, bioavailability, and stability have limited the therapeutic applications of antimicrobial peptides. Among these problems, salt sensitivity is directly related to the microbicidal mechanism of antimicrobial peptides. […] Similar problems have also been found with other antimicrobial peptides. || Recently, solution structures of S1 (Ac-KKWRKWLAKK-NH2) and S1-Nal-Nal (Ac-KKWRKWLAKKNal-Nal-NH2) in complex with LPS micelles have been reported. Both S1 and S1-Nal-Nal bound to LPS through the hydrophilic surface of their helices to the negatively charged region of LPS. S1-Nal-Nal further inserted deeper into the hydrophobic core of LPS micelles and created better hydrophobic interactions of its C-terminal β-naphthylalanine end-tags with the lipid A motif of LPS. The LPS-induced inflammation might then be prohibited. Moreover, a strategy was developed to increase salt resistance and L ... || To investigate the amphipathic helix–AGP–hydrophobic helix on the antimicrobial and neutralization activities of LPS, two peptides KR12 and RW6 were used for the N-terminal and C-terminal helices. […] Sequences of the designed peptides are listed in Table 1 and their helical wheel analyses ar ..."}, "[2]": {"tested_on": "Acinetobacter sp. (BCRC number 14B0100)", "format": "cell-based", "settings": "MH and LYM media", "text": "(§1) Escherichia coli strain (ATCC 25922), Staphylococcus aureus sp. strain (ATCC 25923), Pseudomonas aeruginosa Migula strain (ATCC 27853) and Acinetobacter sp. (BCRC number 14B0100) were used to test the antibacterial activity of the peptides. All bacteria were purchased from Food Industry Research and Development Institute (Hsinchu, Taiwan), and Acinetobacter sp. is multiresistant to Ampicillin, Cefazolin, Cefoxitin, Ceftazidime, Ceftriaxone, Ciprofloxacin, Penicillin, Tetracycline and Imipenem. Bacteria were cultured in sterilized MH (Müller−Hinton) broth at 200 rpm and 37 °C for 8 h. After 8 h of culture, the concentrations of the inoculums were determined by measuring absorbance of optical density at 600 nm (OD 600 = 1, equal to approximately 10^8 CFU/mL) with Ultrospec 2100 pro UV−Visible spectrophotometer (Biochrom Ltd., Cambridge, UK)).\n(§2) The antibacterial activities were determined by the standard broth microdilution method of the National Committee for Clinical Laboratory Standards with the MH and LYM broth. The LYM broth contains 5.4 mM KCl, 5.6 mM Na2HPO4, 0.5 mM MgSO4, and 1.0 mM sodium citrate. In addition, 0.4 mg of ZnCl2, 2.0 mg of FeCl3·6H2O, 0.1 mg of CuSO4·5H2O, 0.1 mg of MnSO4·H2O, 0.1 mg of Na2B4O7·10H2O, 700 mg of amino acid mixtures without tryptophan (Clontech), and 20 mg of L-tryptophan were added per liter of medium. A vitamin mixture (100X, Sigma) and glucose at final concentration of 2% were also added. We made 1 µL peptide solutions (ranging from 3200 µg/mL to 100 µg/mL in serial dilution) and mixed with 99 µL inoculum (5 × 10^5 CFU/mL) in a polypropylene 96-well plate. We measured the turbidity at OD 600 nm by ELISA plate reader (Thermo Max, Molecular Devices, Sunnyvale, CA, USA). The absorbance of culture medium and inoculum suspension without peptides were used as the negative and positive control, respectively. The MIC value is the lowest concentration of peptide at which there is no obvious growth (equal or more than 90%). […] All peptides were tested in triplicate."}, "[3]": {"tested_on": "LPS (interaction between LPS and factor C)", "experiment": "Limulus amebocyte lysate (LAL) assay, LPS binding and neutralization", "format": "biochemical, Limulus Polyphemus", "settings": "peptide 64 μg/mL; CSE 5 EU; absorbance 405 nm, 37 °C; triplicate", "description": "The ability of binding and neutralizing LPS in vitro was measured by the LAL assay which is well-known as the most sensitive and specific method.\nThe abilities of designed peptides to bind and neutralize LPS were assessed using Limulus amebocyte lysate (LAL) assay (Cape Cod Inc., East Falmouth, MA, USA). LAL is an extract of amebocytes from the Atlantic horseshoe crab Limulus Polyphemus. LAL reacts with lipopolysaccharide (LPS) from bacteria. Different concentrations (5, 4, 2, 1, 0.5 EU) of control standard LPS (CSE) were mixed with LAL reagent water at the same volume of 25 μL to make a standard curve. The samples of 25 μL of different peptide concentrations (128, 64, 32, 16, 8 μg/mL) were mixed with 25 μL CSE (5 EU) in a 96-well plate. A portion of 50 μL of pyrochrome reagent was added to the wells immediately. The absorbance at 405 nm was measured by microplate reader at 37 °C every minute until 25 min."}, "[4]": {"tested_on": "Gram-positive and Gram-negative bacteria", "format": "cell-based", "text": "as §1, §2"}},
  "note": "Read-outs that look alike come from different tables or passages of the source.",
  "data": [
    {"substance": "AKRHHGYKRKFH-NH2 [Peptide P-113]", "values": [
      {"measurement": "Efficacy in high salt conditions", "setting": "[1]; high salt conditions", "result": "greatly reduced"}
    ]},
    {"substance": "Ac-KRIVQRIKDFLR-NH2 [KR12, reference compound]", "values": [
      {"measurement": "Antimicrobial activities", "setting": "[1]", "result": "possess antimicrobial activities"},
      {"measurement": "Effectiveness against Acinetobacter sp. compared with the other three bacteria strains", "setting": "[2]", "result": "more effective"},
      {"measurement": "LPS neutralization, inhibition in LAL assay", "setting": "[3]", "result": "less than 25%"}
    ]},
    {"substance": "Ac-KRIVQRIKDFLRAGPRRLVRI-NH2 [KR12AGPVR6]", "values": [
      {"measurement": "MIC", "setting": "[4]; 8 h", "result": "4~32 μg/mL"}
    ]},
    {"substance": "Ac-KRIVQRIKDFLRAGPRRWWRW-NH2 [KR12AGPWR6]", "values": [
      {"measurement": "MIC", "setting": "[4]; 8 h", "result": "2~4 μg/mL"}
    ]},
    {"substance": "Ac-RRWWRW-NH2 [RW6]", "values": [
      {"measurement": "MIC", "setting": "[4]; 8 h", "result": "8~32 μg/mL"},
      {"measurement": "MIC (antibacterial activity)", "setting": "[4]; LYM broth with >100 mM NaCl added, triplicate", "result": "lost its antibacterial activity"},
      {"measurement": "MIC", "setting": "[4]; MH broth, inoculum 5 × 10^5 CFU/mL, OD 600 nm, triplicate", "result": "lost its antibacterial activity"},
      {"measurement": "LPS neutralization, inhibition in LAL assay", "setting": "[3]", "result": "less than 25%"}
    ]},
    {"substance": "WRWWRR [WR6]", "values": [
      {"measurement": "Antimicrobial activities", "setting": "[1]", "result": "moderate antimicrobial activities"}
    ]}
  ]
}
